Source: publication PMC12586182 (Frontiers in Oncology, 2025)

Legend:
Assay in all cases: Kinase panel profiling at 1 µmol/L (mobility shift assay, Carna)
Assay type in all cases: biochemical
Settings in all cases: 1 µmol/L of BTK inhibitor
MUSK = biological target: T1, MUSK (Homo sapiens, UniProt O15146)
T1 construct: purchased Carna Biosciences
T1 sequence (O15146 24-869): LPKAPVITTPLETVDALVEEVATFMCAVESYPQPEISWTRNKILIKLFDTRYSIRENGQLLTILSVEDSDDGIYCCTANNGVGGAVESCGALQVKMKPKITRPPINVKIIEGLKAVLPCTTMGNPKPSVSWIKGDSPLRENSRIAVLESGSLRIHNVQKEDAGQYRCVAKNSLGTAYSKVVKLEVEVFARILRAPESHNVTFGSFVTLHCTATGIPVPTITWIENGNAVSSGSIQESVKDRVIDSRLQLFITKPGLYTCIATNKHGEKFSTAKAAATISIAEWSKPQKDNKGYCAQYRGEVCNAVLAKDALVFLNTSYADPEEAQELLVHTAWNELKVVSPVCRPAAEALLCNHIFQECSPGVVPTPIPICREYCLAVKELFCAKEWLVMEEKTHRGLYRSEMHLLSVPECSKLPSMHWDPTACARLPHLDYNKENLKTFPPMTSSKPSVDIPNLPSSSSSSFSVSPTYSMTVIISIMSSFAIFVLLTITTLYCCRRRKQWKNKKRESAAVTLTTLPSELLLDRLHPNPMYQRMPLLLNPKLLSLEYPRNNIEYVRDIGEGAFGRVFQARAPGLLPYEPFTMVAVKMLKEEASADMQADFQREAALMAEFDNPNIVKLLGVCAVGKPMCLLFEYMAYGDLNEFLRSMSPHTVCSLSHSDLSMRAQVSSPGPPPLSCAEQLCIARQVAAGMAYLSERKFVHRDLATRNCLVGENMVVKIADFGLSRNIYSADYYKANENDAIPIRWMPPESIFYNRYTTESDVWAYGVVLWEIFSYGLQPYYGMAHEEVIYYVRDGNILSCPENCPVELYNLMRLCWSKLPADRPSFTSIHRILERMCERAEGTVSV

MST4 = biological target: T2, MST4 (Homo sapiens, UniProt Q9P289)
T2 construct: purchased Carna Biosciences

TBK1 = biological target: T3, TBK1 (Homo sapiens, UniProt Q9UHD2)
T3 construct: purchased Carna Biosciences
T3 sequence (Q9UHD2 1-729): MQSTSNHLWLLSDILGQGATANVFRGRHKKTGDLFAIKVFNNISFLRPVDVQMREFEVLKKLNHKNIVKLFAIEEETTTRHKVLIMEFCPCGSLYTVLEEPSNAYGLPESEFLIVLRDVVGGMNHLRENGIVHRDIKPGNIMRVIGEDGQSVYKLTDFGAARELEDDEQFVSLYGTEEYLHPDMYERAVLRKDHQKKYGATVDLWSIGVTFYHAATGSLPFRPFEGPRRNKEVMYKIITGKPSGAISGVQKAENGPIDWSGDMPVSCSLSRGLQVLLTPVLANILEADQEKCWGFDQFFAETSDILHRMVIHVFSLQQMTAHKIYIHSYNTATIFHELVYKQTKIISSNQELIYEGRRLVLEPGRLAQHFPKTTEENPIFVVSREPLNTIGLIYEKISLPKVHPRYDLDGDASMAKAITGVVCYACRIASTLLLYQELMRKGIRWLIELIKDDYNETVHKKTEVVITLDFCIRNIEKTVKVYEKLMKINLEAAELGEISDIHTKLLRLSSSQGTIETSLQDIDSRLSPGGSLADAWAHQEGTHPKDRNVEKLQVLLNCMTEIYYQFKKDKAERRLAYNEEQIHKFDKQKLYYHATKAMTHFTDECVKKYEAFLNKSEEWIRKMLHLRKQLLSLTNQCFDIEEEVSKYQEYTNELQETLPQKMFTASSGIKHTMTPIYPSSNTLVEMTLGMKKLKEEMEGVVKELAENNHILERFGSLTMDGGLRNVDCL

HCK = biological target: T4, HCK (Homo sapiens, UniProt P08631)
T4 construct: purchased Carna Biosciences

PKCι = biological target: T5, PKCι (Homo sapiens, UniProt P41743)
T5 construct: purchased Carna Biosciences
T5 sequence (P41743 1-596): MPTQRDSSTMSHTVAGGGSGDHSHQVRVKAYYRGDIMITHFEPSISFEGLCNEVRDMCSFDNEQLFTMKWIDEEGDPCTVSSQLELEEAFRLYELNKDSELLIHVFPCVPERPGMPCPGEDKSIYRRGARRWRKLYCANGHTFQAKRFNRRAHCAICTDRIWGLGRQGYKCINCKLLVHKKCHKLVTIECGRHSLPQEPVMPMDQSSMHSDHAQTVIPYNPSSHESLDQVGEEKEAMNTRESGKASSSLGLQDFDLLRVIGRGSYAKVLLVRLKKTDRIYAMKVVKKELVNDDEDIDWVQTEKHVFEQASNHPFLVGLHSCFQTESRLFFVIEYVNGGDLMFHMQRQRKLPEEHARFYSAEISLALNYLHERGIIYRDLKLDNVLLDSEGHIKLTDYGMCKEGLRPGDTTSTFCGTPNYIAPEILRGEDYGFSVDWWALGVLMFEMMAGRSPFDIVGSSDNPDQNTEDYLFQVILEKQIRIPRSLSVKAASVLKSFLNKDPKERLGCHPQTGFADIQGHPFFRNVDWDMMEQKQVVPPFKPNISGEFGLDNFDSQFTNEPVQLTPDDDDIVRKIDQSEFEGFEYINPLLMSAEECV

CHK1 = biological target: T6, CHK1 (Homo sapiens, UniProt O14757)
T6 construct: purchased Carna Biosciences
T6 sequence (O14757 1-476): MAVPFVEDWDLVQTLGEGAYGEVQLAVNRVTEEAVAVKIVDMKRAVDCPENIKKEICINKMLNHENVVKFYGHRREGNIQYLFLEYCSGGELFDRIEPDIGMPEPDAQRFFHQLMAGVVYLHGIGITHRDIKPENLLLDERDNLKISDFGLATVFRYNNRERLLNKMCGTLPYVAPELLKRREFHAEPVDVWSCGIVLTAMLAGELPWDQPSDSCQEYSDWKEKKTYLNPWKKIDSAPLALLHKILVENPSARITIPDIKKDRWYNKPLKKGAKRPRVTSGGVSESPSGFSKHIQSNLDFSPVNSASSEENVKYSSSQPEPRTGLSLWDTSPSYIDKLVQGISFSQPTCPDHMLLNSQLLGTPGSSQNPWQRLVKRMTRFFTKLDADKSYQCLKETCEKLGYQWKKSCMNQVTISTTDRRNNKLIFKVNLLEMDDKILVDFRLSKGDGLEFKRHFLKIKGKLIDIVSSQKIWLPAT

T4 sequence (P08631 whole entry): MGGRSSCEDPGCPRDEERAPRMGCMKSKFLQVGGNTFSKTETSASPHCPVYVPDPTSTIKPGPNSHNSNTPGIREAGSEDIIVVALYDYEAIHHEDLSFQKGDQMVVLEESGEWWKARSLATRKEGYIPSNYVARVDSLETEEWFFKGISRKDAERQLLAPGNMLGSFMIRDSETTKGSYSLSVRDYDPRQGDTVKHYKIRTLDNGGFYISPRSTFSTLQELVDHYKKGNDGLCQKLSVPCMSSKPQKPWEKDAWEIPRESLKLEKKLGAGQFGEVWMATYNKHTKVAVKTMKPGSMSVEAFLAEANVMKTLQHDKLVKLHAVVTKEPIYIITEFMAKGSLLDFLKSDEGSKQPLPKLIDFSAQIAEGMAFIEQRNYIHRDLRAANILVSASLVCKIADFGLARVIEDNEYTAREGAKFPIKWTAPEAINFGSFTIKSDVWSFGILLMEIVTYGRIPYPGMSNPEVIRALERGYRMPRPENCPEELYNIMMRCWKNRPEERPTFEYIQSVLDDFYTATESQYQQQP
T2 sequence (Q9P289 whole entry): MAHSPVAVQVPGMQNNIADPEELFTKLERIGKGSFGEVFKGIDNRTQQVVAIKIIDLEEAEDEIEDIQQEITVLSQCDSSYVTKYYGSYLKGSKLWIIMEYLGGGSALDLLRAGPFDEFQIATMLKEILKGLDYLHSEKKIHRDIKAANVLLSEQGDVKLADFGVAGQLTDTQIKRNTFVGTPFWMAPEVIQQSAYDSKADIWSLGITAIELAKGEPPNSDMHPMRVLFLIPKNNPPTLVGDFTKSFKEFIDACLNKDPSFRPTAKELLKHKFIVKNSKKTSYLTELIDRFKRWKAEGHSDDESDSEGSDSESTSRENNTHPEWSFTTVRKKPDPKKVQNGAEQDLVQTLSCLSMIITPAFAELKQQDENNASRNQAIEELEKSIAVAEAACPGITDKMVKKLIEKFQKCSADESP

Row | SMILES | Percentage inhibition of kinase enzyme activity (MUSK) [%] | Percentage inhibition of kinase enzyme activity (MST4) [%] | Percentage inhibition of kinase enzyme activity (TBK1) [%] | Percentage inhibition of kinase enzyme activity (HCK) [%] | Percentage inhibition of kinase enzyme activity (PKCι) [%] | Percentage inhibition of kinase enzyme activity (CHK1) [%]
1 | CC#CC(=O)N1CCC[C@H]1c1nc(-c2ccc(C(=O)Nc3ccccn3)cc2)c2c(N)nccn12 [acalabrutinib] | -0.58 | -6.42 | 2.14 | 0.45 | -8.38 | -6.98
2 | C=CC(=O)N1CCC[C@@H](n2nc(-c3ccc(Oc4ccccc4)cc3)c3c(N)ncnc32)C1 [ibrutinib] | 1.76 | 1.46 | 0.83 | 99.66 | 2.23 | 10.13
3 | O=C(c1ccc(Oc2ccccc2)cc1Cl)c1c[nH]c2ncnc(N[C@@H]3CC[C@@H](CO)OC3)c12 [nemtabrutinib] | 100.11 | 57.51 | 1.71 | 96.80 | -1.29 | 12.30
4 | C=CC(=O)N1CCC([C@@H]2CCNc3c(C(N)=O)c(-c4ccc(Oc5ccccc5)cc4)nn32)CC1 [zanubrutinib] | 11.33 | – | – | – | – | –
5 | COc1ccc(F)cc1C(=O)NCc1ccc(-c2nn([C@@H](C)C(F)(F)F)c(N)c2C(N)=O)cc1 [pirtobrutinib] | 1.20 | -7.97 | 2.58 | 24.69 | 0.51 | 8.67
